In US12319652B2, “Salts and solid forms of (R)-1-(5-methoxy-1H-indol-1-yl)-N,N-dimethylpropan-2-amine” (priority 2021, dated 2025):
Like-named read-outs stand apart in the source and are kept apart here.

How the values were obtained:
[1] = format: physicochemical
Description: Equilibrium Humidity Evaluation (40° C./75% RH for 10 Days)
100 mg portions of compound 1 salts (for inputs see table below) were placed in the relevant open vials. The powders were finely divided and distributed evenly over the base of the vial, such that equal material coverage across the panel was observed. These samples were then maintained 40°C. under 75% RH. The samples were sub-sampled at intervals of 5 and 10 days and analysed by ^1H NMR, HPLC, XRPD, DSC, TGA and PLM, for evidence of phase change or chemical degradation (FIG. 269-297).

[2] = Dynamic vapor sorption (DVS); format: physicochemical
Description: There are two main methods to use, one is by time where the equilibration is given by a fixed time, i.e., 1 hour per step and is appropriate for an unknown phase. The second, is by mass per time unit (dm/dt) of 0.002%/min; that is when the difference in weight is less than 0.002%, the instrument moves onto the next step. For unknown hygroscopicity, the method by time is indicated because it gives an idea of water affinity without wasting much time. Ideally the analyses are repeated using the mass equilibration method to confirm. By experience for hygroscopic samples, the analysis can continue for days. For non-hygroscopic samples the difference between the two methods may not be significant.
Consequently, amorphous batch 1 was analyzed by the fixed time method and once compound 1 fumarate crystalline polymorphic Form A was generated the analyses was repeated as mass per unit time equilibrated @dm/dt ([…]) and is given below (refer to FIG. 12).
(§1) The moisture sorption properties of the feed API were analysed by DVS Intrinsic instrument (Surface Measurement System). Approximately 20 to 50 mg of API was weighed onto an aluminium pan and loaded into the instrument equilibrated at 25° C. The sample was equilibrated under a dry atmosphere (0% relative humidity) for 60 minutes, before increasing the humidity from 0% to 30% at 5%4 step increment and from 30% to 90% at 10% step increment. A desorption cycle was also applied from 90% to 30% (10% step decrement) and from 30% to 0% (5% step decrement). A rate of change in mass per time unit (dm/dt) of 0.002%/min was set as the equilibrium parameter. Kinetic and isotherm graphs were calculated.
Specimens were equilibrated at 0% RH for 60 min, prior to DVS analyses (stepped increment % RH up to 90% RH and stepped decrement % RH down to 0% RH.
as §1, with “5%” for “5%4”

SMILES: COc1ccc2c(ccn2C[C@@H](C)N(C)C)c1.O=C(O)c1ccccc1 [Benzoate salt]
- HPLC peak RRT 1.00 (reference peak) ([1]; salt before storage (t = 0)): 99.64
- HPLC peak RRT 1.09 ([1]; salt before storage (t = 0)): 0.03
- HPLC peak RRT 1.16 ([1]; salt before storage (t = 0)): 0.03
- HPLC peak RRT 1.19 ([1]; salt before storage (t = 0)): 0.10
- HPLC peak RRT 1.20 ([1]; salt before storage (t = 0)): 0.02
- HPLC peak RRT 1.24 ([1]; salt before storage (t = 0)): 0.06
- HPLC peak RRT 1.26 ([1]; salt before storage (t = 0)): 0.01
- HPLC peak RRT 1.35 ([1]; salt before storage (t = 0)): 0.10
- HPLC peak RRT 0.98 ([1]; t = 5 d at 75% RH at 40° C.): 0.04
- HPLC peak RRT 1.00 (reference peak) ([1]; t = 5 d at 75% RH at 40° C.): 99.64
- HPLC peak RRT 1.16 ([1]; t = 5 d at 75% RH at 40° C.): 0.03
- HPLC peak RRT 1.19 ([1]; t = 5 d at 75% RH at 40° C.): 0.10
- HPLC peak RRT 1.20 ([1]; t = 5 d at 75% RH at 40° C.): 0.02
- HPLC peak RRT 1.26 ([1]; t = 5 d at 75% RH at 40° C.): 0.05
- HPLC peak RRT 1.35 ([1]; t = 5 d at 75% RH at 40° C.): 0.11
- HPLC peak RRT 0.98 ([1]; t = 10 d at 75% RH at 40° C.): 0.04
- HPLC peak RRT 1.00 (reference peak) ([1]; t = 10 d at 75% RH at 40° C.): 99.52
- HPLC peak RRT 1.08 ([1]; t = 10 d at 75% RH at 40° C.): 0.05
- HPLC peak RRT 1.16 ([1]; t = 10 d at 75% RH at 40° C.): 0.04
- HPLC peak RRT 1.19 ([1]; t = 10 d at 75% RH at 40° C.): 0.13
- HPLC peak RRT 1.20 ([1]; t = 10 d at 75% RH at 40° C.): 0.02
- HPLC peak RRT 1.26 ([1]; t = 10 d at 75% RH at 40° C.): 0.07
- HPLC peak RRT 1.35 ([1]; t = 10 d at 75% RH at 40° C.): 0.12

SMILES: COc1ccc2c(ccn2C[C@@H](C)N(C)C)c1.Cl [Compound 1 HCl (Form A)]
- DVS 0 to 90 to 0% RH (dm/dt <0.002%) ([2]; 0.0% RH, sorption): DVS 0 to 90 to 0% RH (dm/dt <0.002%): 0.0 (0.00%), 5.0 (0.00%),
- DVS 0 to 90 to 0% RH (dm/dt <0.002%) ([2]; 5.0% RH, desorption): 0.03%
- DVS 0 to 90 to 0% RH (dm/dt <0.002%) ([2]; 5.0% RH, sorption): DVS 0 to 90 to 0% RH (dm/dt <0.002%): 0.0 (0.00%), 5.0 (0.00%),
- DVS 0 to 90 to 0% RH (dm/dt <0.002%) ([2]; 10.0% RH, desorption): 0.04%
- DVS 0 to 90 to 0% RH (dm/dt <0.002%) ([2]; 10.0% RH, sorption): 0.02%
- DVS 0 to 90 to 0% RH (dm/dt <0.002%) ([2]; 15.0% RH, desorption): 0.05%
- DVS 0 to 90 to 0% RH (dm/dt <0.002%) ([2]; 15.0% RH, sorption): 0.02%
- DVS 0 to 90 to 0% RH (dm/dt <0.002%) ([2]; 20.0% RH, desorption): 0.06%
- DVS 0 to 90 to 0% RH (dm/dt <0.002%) ([2]; 20.0% RH, sorption): 0.03%
- DVS 0 to 90 to 0% RH (dm/dt <0.002%) ([2]; 25.0% RH, desorption): 0.07%
- DVS 0 to 90 to 0% RH (dm/dt <0.002%) ([2]; 25.0% RH, sorption): 0.04%
- DVS 0 to 90 to 0% RH (dm/dt <0.002%) ([2]; 30.0% RH, desorption): 0.09%
- DVS 0 to 90 to 0% RH (dm/dt <0.002%) ([2]; 30.0% RH, sorption): 0.05%
- DVS 0 to 90 to 0% RH (dm/dt <0.002%) ([2]; 40.0% RH, desorption): 0.10%
- DVS 0 to 90 to 0% RH (dm/dt <0.002%) ([2]; 40.0% RH, sorption): 0.07%
- DVS 0 to 90 to 0% RH (dm/dt <0.002%) ([2]; 50.0% RH, desorption): 0.14%
- DVS 0 to 90 to 0% RH (dm/dt <0.002%) ([2]; 50.0% RH, sorption): 0.10%
- DVS 0 to 90 to 0% RH (dm/dt <0.002%) ([2]; 60.0% RH, desorption): 0.17%
- DVS 0 to 90 to 0% RH (dm/dt <0.002%) ([2]; 60.0% RH, sorption): 0.14%
- DVS 0 to 90 to 0% RH (dm/dt <0.002%) ([2]; 70.0% RH, desorption): 0.22%
- DVS 0 to 90 to 0% RH (dm/dt <0.002%) ([2]; 70.0% RH, sorption): 0.19%
- DVS 0 to 90 to 0% RH (dm/dt <0.002%) ([2]; 80.0% RH, desorption): 0.29%
- DVS 0 to 90 to 0% RH (dm/dt <0.002%) ([2]; 80.0% RH, sorption): 0.26%
- DVS 0 to 90 to 0% RH (dm/dt <0.002%) ([2]; 90.0% RH, desorption): 0.46%
- DVS 0 to 90 to 0% RH (dm/dt <0.002%) ([2]; 90.0% RH, sorption): 0.46%

SMILES: COc1ccc2c(ccn2C[C@@H](C)N(C)C)c1.Cl [HCl salt]
- HPLC peak RRT 0.93 ([1]; salt before storage (t = 0)): 0.01
- HPLC peak RRT 0.98 ([1]; salt before storage (t = 0)): 0.02
- HPLC peak RRT 0.99 ([1]; salt before storage (t = 0)): 0.01
- HPLC peak RRT 1.00 (reference peak) ([1]; salt before storage (t = 0)): 99.60
- HPLC peak RRT 1.20 ([1]; salt before storage (t = 0)): 0.01
- HPLC peak RRT 1.22 ([1]; salt before storage (t = 0)): 0.11
- HPLC peak RRT 1.26 ([1]; salt before storage (t = 0)): 0.16
- HPLC peak RRT 1.30 ([1]; salt before storage (t = 0)): 0.03
- HPLC peak RRT 1.32 ([1]; salt before storage (t = 0)): 0.01
- HPLC peak RRT 1.35 ([1]; salt before storage (t = 0)): 0.04
- HPLC peak RRT 0.93 ([1]; t = 5 d at 75% RH at 40° C.): 0.05
- HPLC peak RRT 0.98 ([1]; t = 5 d at 75% RH at 40° C.): 0.02
- HPLC peak RRT 1.00 (reference peak) ([1]; t = 5 d at 75% RH at 40° C.): 99.42
- HPLC peak RRT 1.20 ([1]; t = 5 d at 75% RH at 40° C.): 0.02
- HPLC peak RRT 1.22 ([1]; t = 5 d at 75% RH at 40° C.): 0.42
- HPLC peak RRT 1.26 ([1]; t = 5 d at 75% RH at 40° C.): 0.02
- HPLC peak RRT 1.28 ([1]; t = 5 d at 75% RH at 40° C.): 0.02
- HPLC peak RRT 1.35 ([1]; t = 5 d at 75% RH at 40° C.): 0.04
- HPLC peak RRT 0.93 ([1]; t = 10 d at 75% RH at 40° C.): 0.05
- HPLC peak RRT 0.98 ([1]; t = 10 d at 75% RH at 40° C.): 0.01
- HPLC peak RRT 1.00 (reference peak) ([1]; t = 10 d at 75% RH at 40° C.): 99.60
- HPLC peak RRT 1.22 ([1]; t = 10 d at 75% RH at 40° C.): 0.31
- HPLC peak RRT 1.35 ([1]; t = 10 d at 75% RH at 40° C.): 0.02

SMILES: COc1ccc2c(ccn2C[C@@H](C)N(C)C)c1.O=C(O)/C=C\C(=O)O [Maleate salt]
- HPLC peak RRT 0.93 ([1]; salt before storage (t = 0)): 0.03
- HPLC peak RRT 0.98 ([1]; salt before storage (t = 0)): 0.06
- HPLC peak RRT 1.00 (reference peak) ([1]; salt before storage (t = 0)): 99.22
- HPLC peak RRT 1.10 ([1]; salt before storage (t = 0)): 0.28
- HPLC peak RRT 1.13 ([1]; salt before storage (t = 0)): 0.14
- HPLC peak RRT 1.17 ([1]; salt before storage (t = 0)): 0.02
- HPLC peak RRT 1.18 ([1]; salt before storage (t = 0)): 0.03
- HPLC peak RRT 1.19 ([1]; salt before storage (t = 0)): 0.08
- HPLC peak RRT 1.25 ([1]; salt before storage (t = 0)): 0.03
- HPLC peak RRT 1.34 ([1]; salt before storage (t = 0)): 0.11
- HPLC peak RRT 0.84 ([1]; t = 5 d at 75% RH at 40° C.): 0.31
- HPLC peak RRT 0.93 ([1]; t = 5 d at 75% RH at 40° C.): 0.05
- HPLC peak RRT 0.98 ([1]; t = 5 d at 75% RH at 40° C.): 0.03
- HPLC peak RRT 1.00 (reference peak) ([1]; t = 5 d at 75% RH at 40° C.): 99.09
- HPLC peak RRT 1.13 ([1]; t = 5 d at 75% RH at 40° C.): 0.21
- HPLC peak RRT 1.19 ([1]; t = 5 d at 75% RH at 40° C.): 0.10
- HPLC peak RRT 1.34 ([1]; t = 5 d at 75% RH at 40° C.): 0.22
- HPLC peak RRT 0.84 ([1]; t = 10 d at 75% RH at 40° C.): 0.65
- HPLC peak RRT 0.93 ([1]; t = 10 d at 75% RH at 40° C.): 0.06
- HPLC peak RRT 0.98 ([1]; t = 10 d at 75% RH at 40° C.): 0.05
- HPLC peak RRT 1.00 (reference peak) ([1]; t = 10 d at 75% RH at 40° C.): 98.30
- HPLC peak RRT 1.13 ([1]; t = 10 d at 75% RH at 40° C.): 0.33
- HPLC peak RRT 1.19 ([1]; t = 10 d at 75% RH at 40° C.): 0.09
- HPLC peak RRT 1.22 ([1]; t = 10 d at 75% RH at 40° C.): 0.09
- HPLC peak RRT 1.25 ([1]; t = 10 d at 75% RH at 40° C.): 0.02
- HPLC peak RRT 1.26 ([1]; t = 10 d at 75% RH at 40° C.): 0.06
- HPLC peak RRT 1.28 ([1]; t = 10 d at 75% RH at 40° C.): 0.05
- HPLC peak RRT 1.32 ([1]; t = 10 d at 75% RH at 40° C.): 0.10
- HPLC peak RRT 1.34 ([1]; t = 10 d at 75% RH at 40° C.): 0.19
